Results on 16 compounds are retold here after patent US20110028442A1, “DERIVATIVES OF 4-(2-AMINO-1-HYDROXYETHYL) PHENOL AS AGONISTS OF THE BETA2 ADRENERGIC RECEPTOR” (priority 2008, published 2011).

Structures are written as SMILES.

Experiment [1] deals with T1, human adrenergic β2 receptor (Homo sapiens, UniProt P07550).
T1 construct: purchased Perkin Elmer; host or cells: Sf9 cells
The experiment is described as follows: Human adrenergic β2 receptor binding assay (3H-CGP12177, Sf9 membranes). Conditions: for IC50: membranes from Sf9 cells, 0.14 nM 3H-CGP12177, 60 minutes at room temperature; for β1/β2 ratio: ratio of human β1 IC50 to human β2 IC50. The method, then:
(§1) Human Adrenergic β1 and β2 Receptor Binding Assays
(§2) The study of binding to human adrenergic β1 and β2 receptors was performed using commercial membranes prepared from Sf9 cells where they are overexpressed (Perkin Elmer).
(§3) The membrane suspensions (16 μg/well for β1 and 5 μg/well for β2) in assay buffer, 75 mM Tris/HCl with 12.5 mM MgCl2 and 2 mM EDTA pH=7.4, were incubated with 0.14 nM 3H-CGP12177 (Amersham) and different concentrations of the test compounds, in a final volume of 250 μl, in GFC Multiscreen 96 well plates (Millipore) pretreated with +0.3% PEI. Non specific binding was measured in the presence of 1 μM propanolol. Incubation was for 60 minutes at room temperature and with gentle shaking. The binding reactions were terminated by filtration and washing with 2.5 volumes of Tris/HCl 50 mM pH=7.4. The affinity of each test compound to the receptor was determined by using at least six different concentrations ran in duplicate. IC50 values were obtained by non-linear regression using SAS.

Experiment [2] has as its target T2, human adrenergic β1 receptor (Homo sapiens, UniProt P08588).
T2 construct: purchased Perkin Elmer; host or cells: Sf9 cells
The experiment is described as follows: Human adrenergic β1 receptor binding assay (3H-CGP12177, Sf9 membranes). The conditions noted are these: membranes from Sf9 cells, 0.14 nM 3H-CGP12177, 60 minutes at room temperature. On the procedure: as §1, §2, §3

T2 sequence (P08588 whole entry): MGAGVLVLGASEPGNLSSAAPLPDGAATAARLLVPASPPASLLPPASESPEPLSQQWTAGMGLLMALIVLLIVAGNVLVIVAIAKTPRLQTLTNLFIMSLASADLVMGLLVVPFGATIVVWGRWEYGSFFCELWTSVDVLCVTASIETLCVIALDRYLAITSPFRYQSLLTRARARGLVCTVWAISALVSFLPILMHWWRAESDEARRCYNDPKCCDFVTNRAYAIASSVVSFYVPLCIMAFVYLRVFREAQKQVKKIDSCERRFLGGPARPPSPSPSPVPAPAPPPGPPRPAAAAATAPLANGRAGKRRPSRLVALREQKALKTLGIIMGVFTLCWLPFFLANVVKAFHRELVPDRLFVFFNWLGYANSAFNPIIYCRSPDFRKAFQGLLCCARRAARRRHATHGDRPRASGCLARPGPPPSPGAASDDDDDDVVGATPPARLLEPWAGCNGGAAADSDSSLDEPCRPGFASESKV
T1 sequence (P07550 whole entry): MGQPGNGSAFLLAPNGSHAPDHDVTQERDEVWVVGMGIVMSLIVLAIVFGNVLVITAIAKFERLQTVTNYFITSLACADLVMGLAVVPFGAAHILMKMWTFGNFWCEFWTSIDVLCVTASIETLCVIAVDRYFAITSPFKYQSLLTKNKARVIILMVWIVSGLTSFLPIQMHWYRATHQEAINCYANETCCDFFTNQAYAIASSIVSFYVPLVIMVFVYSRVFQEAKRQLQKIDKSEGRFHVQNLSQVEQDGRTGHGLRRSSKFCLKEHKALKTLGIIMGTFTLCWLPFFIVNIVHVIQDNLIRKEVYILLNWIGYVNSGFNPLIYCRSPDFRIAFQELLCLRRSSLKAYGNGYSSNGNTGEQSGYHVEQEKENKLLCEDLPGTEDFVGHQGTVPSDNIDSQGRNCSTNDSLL

`O=C(NCc1c(Cl)cccc1Cl)Nc1cccc(CCNCC(O)c2ccc(O)c3[nH]c(=O)ccc23)c1` [Example 17, N-(2,6-dichlorobenzyl)-N′-[3-(2-{[(2R,S)-2-hydroxy-2-(8-hydroxy-2-oxo-1,2-dihydroquinolin-5-yl)ethyl]amino}ethyl)phenyl]urea]: in experiment [1], the IC50 (as a rule, the midpoint of a concentration-inhibition curve) was 6 nM and the β1/β2 ratio is reported as 13. Also, the IC50 in experiment [2] was 78 nM.
Turning to `O=C(NCCc1ccccc1)Nc1cccc(CCNCC(O)c2ccc(O)c3[nH]c(=O)ccc23)c1` [Example 11, N-[3-(2-{[(2R,S)-2-hydroxy-2-(8-hydroxy-2-oxo-1,2-dihydroquinolin-5-yl)ethyl]amino}ethyl)phenyl]-N′-(2-phenylethyl)urea], in experiment [1], the IC50 came out at 6.2 nM and the β1/β2 ratio is on record as 1.4. Also, the IC50 in experiment [2] was determined as 9 nM.
As for `O=C(NCC12CC3CC(CC(C3)C1)C2)Nc1cccc(CCNCC(O)c2ccc(O)c3[nH]c(=O)ccc23)c1` [Example 23, N-(1-adamantylmethyl)-N′-[3-(2-{[(2R,S)-2-hydroxy-2-(8-hydroxy-2-oxo-1,2-dihydroquinolin-5-yl)ethyl]amino}ethyl)phenyl]urea], the figures for the IC50 in experiment [1] and in experiment [2] were 5.9 nM and 36 nM, respectively.
For `O=C(NCCCc1ccccc1)Nc1cccc(CCNCC(O)c2ccc(O)c3[nH]c(=O)ccc23)c1` [Example 12, N-[3-(2-{[(2R,S)-2-hydroxy-2-(8-hydroxy-2-oxo-1,2-dihydroquinolin-5-yl)ethyl]amino}ethyl)phenyl]-N′-(3-phenylpropyl)urea], in experiment [1], the IC50 came to 2.6 nM and the β1/β2 ratio turned out to be 7.4. In experiment [2], this compound registered an IC50 of 19.5 nM.
Turning to `O=C(Nc1cccc(CCNC[C@H](O)c2ccc(O)c3[nH]c(=O)ccc23)c1)Nc1ccccc1-c1ccccc1` [Example 27, N-biphenyl-2-yl-N′-[3-(2-{[(2R)-2-hydroxy-2-(8-hydroxy-2-oxo-1,2-dihydroquinolin-5-yl)ethyl]amino}ethyl)phenyl]urea], in experiment [1], the IC50 was 9.7 nM and the β1/β2 ratio was 2.5. This compound yielded a concentration for half-maximal inhibition (IC50) in experiment [2] of 24 nM.
Regarding `C[C@@H](Cc1cccc(NC(=O)Nc2ccccc2-c2ccccc2)c1)NC[C@H](O)c1ccc(O)c2[nH]c(=O)ccc12` [Example 32, N-biphenyl-2-yl-N′-[3-(2-{[(2R)-2-hydroxy-2-(8-hydroxy-2-oxo-1,2-dihydroquinolin-5-yl)ethyl]amino}propyl)phenyl]urea, b isomer], in experiment [1], the IC50 amounted to 2.8 nM and the β1/β2 ratio was 9.1. The same compound displayed an IC50 in experiment [2] of 25.5 nM.
The corresponding values for `COc1ccccc1CNC(=O)Nc1cccc(CCNCC(O)c2ccc(O)c3[nH]c(=O)ccc23)c1` [Example 9, N-[3-(2-{[(2R,S)-2-hydroxy-2-(8-hydroxy-2-oxo-1,2-dihydroquinolin-5-yl)ethyl]amino}ethyl)phenyl]-N′-(2-methoxybenzyl)urea] are 5.6 nM, 7.9 and 44.5 nM.
Taken in the same sequence, the figures for `COc1ccccc1CNC(=O)Nc1cccc(CC(C)NCC(O)c2ccc(O)c3[nH]c(=O)ccc23)c1` [Example 6, N-[3-(2R,S)-2-{[(2R,S)-2-hydroxy-2-(8-hydroxy-2-oxo-1,2-dihydroquinolin-5-yl)ethyl]amino}propyl)phenyl]-N′-(2-methoxybenzyl)urea] were 4.6 nM, 11.7 and 54 nM.
Regarding `O=C(Nc1ccccc1)Nc1cccc(CCNCC(O)c2ccc(O)c3[nH]c(=O)ccc23)c1` [Example 15, N-[3-(2-{[(2R,S)-2-hydroxy-2-(8-hydroxy-2-oxo-1,2-dihydroquinolin-5-yl)ethyl]amino}ethyl)phenyl]-N′-phenylurea], in experiment [1], the IC50 is 10.5 nM and the β1/β2 ratio is given as 0.4. The same compound showed an IC50 in experiment [2] of 4.4 nM.
With `CC(C)(C)c1ccc(CNC(=O)Nc2cccc(CCNC[C@H](O)c3ccc(O)c4[nH]c(=O)ccc34)c2)cc1` (racemic) [Example 33, N-(4-tert-butylbenzyl)-N′-[3-(2-{[(2R,S)-2-hydroxy-2-(8-hydroxy-2-oxo-1,2-dihydroquinolin-5-yl)ethyl]amino}ethyl)phenyl]urea], in experiment [1], the IC50 worked out at 7.6 nM and the β1/β2 ratio is listed as 6.0. In experiment [2], this compound showed an IC50 of 45.5 nM.
Taken in the same sequence, the figures for `O=C(NCCCCc1ccccc1)Nc1cccc(CCNCC(O)c2ccc(O)c3[nH]c(=O)ccc23)c1` [Example 20, N-[3-(2-{[(2R,S)-2-hydroxy-2-(8-hydroxy-2-oxo-1,2-dihydroquinolin-5-yl)ethyl]amino}ethyl)phenyl]-N′-(4-phenylbutyl)urea] were 2.9 nM, 4.5 and 13 nM.
Taken in the same sequence, the figures for `O=C(Nc1ccc(CCNC[C@H](O)c2ccc(O)c3[nH]c(=O)ccc23)cc1)NC(c1ccccc1)c1ccccc1` [Example 36, N-(diphenylmethyl)-N′-[4-(2-{[(2R)-2-hydroxy-2-(8-hydroxy-2-oxo-1,2-dihydroquinolin-5-yl)ethyl]amino}ethyl)phenyl]urea] were 4.5 nM, 4.3 and 19.5 nM.
Taken in the same sequence, the figures for `O=C(Nc1cccc(CCNC[C@H](O)c2ccc(O)c3[nH]c(=O)ccc23)c1)NC(c1ccccc1)c1ccccc1` [Example 26, N-(diphenylmethyl)-N′-[3-(2-{[(2R)-2-hydroxy-2-(8-hydroxy-2-oxo-1,2-dihydroquinolin-5-yl)ethyl]amino}ethyl)phenyl]urea] were 5.3 nM, 4.6 and 24.5 nM.
For `CC(Cc1cccc(NC(=O)NCc2ccccc2)c1)NCC(O)c1ccc(O)c2[nH]c(=O)ccc12` [Example 3, N-benzyl-N′-[3-((2R,S)-2-{[(2R,S)-2-hydroxy-2-(8-hydroxy-2-oxo-1,2-dihydroquinolin-5-yl)ethyl]amino}propyl)phenyl]urea], the IC50 is 12 nM in experiment [1] and 98 nM in experiment [2]. The β1/β2 ratio in experiment [1] was determined as 8.2.
In the case of `O=C(Nc1cccc(CCNCC(O)c2ccc(O)c3[nH]c(=O)ccc23)c1)NC12CC3CC(CC(C3)C1)C2` [Example 16, N-1-adamantyl-N′-[3-(2-{[(2R,S)-2-hydroxy-2-(8-hydroxy-2-oxo-1,2-dihydroquinolin-5-yl)ethyl]amino}ethyl)phenyl]urea], in experiment [1], the IC50 was 10 nM and the β1/β2 ratio is recorded as 3.8. The IC50 in experiment [2] was determined as 38.5 nM.
As for `O=C(NCc1ccccc1)Nc1cccc(CCNCC(O)c2ccc(O)c3[nH]c(=O)ccc23)c1` [Example 8, N-benzyl-N′-[3-(2-{[(2R,S)-2-hydroxy-2-(8-hydroxy-2-oxo-1,2-dihydroquinolin-5-yl)ethyl]amino}ethyl)phenyl]urea], in experiment [1], the IC50 came out at 4.4 nM and the β1/β2 ratio stood at 11.0. The IC50 in experiment [2] amounted to 49 nM.
